Experimental data as given in ChEMBL document CHEMBL4334510, “Antitumor Activity of Vanicoside B Isolated from Persicaria dissitiflora by Targeting CDK8 in Triple-Negative Breast Cancer Cells” (J Nat Prod, 2019).
Activity calls are given as the source filed them.

Legend:
Mus musculus [1] = test: Downregulation of phosphorylated STAT1 expression at ser727 residue in Balb/c mouse xenografted with human MDA-MB-231 cells at 5 mg/kg, ip administered 3 times per week for 29 days by DAB staining based immunohistochemical analysis; type: functional, organism-based
[2] = Toxicity in Balb/c mouse xenografted with human MDA-MB-231 cells assessed as reduction in body weight at 5 mg/kg, ip ip administered 3 times per week and measured 2 times per week for 29 days; type: organism-based; details: in vivo, 696 h
Mus musculus [3] = test: Downregulation of Ki67 expression in Balb/c mouse xenografted with human MDA-MB-231 cells at 5 mg/kg, ip administered 3 times per week for 29 days by DAB staining based immunohistochemical analysis; type: functional, organism-based
Mus musculus [4] = test: Downregulation of AXL expression in Balb/c mouse xenografted with human MDA-MB-231 cells at 5 mg/kg, ip administered 3 times per week for 29 days by DAB staining based immunohistochemical analysis; type: functional, organism-based
[5] = molecular target: Cyclin-dependent kinase 8 (Homo sapiens) (UniProt P49336); test: Inhibition of CDK8 in human HCC38 cells assessed as reduction in S6 phosphorylation after 24 hrs by Western blot analysis; type: cell-based
Chain of Cyclin-dependent kinase 8 (Homo sapiens) (P49336 whole entry): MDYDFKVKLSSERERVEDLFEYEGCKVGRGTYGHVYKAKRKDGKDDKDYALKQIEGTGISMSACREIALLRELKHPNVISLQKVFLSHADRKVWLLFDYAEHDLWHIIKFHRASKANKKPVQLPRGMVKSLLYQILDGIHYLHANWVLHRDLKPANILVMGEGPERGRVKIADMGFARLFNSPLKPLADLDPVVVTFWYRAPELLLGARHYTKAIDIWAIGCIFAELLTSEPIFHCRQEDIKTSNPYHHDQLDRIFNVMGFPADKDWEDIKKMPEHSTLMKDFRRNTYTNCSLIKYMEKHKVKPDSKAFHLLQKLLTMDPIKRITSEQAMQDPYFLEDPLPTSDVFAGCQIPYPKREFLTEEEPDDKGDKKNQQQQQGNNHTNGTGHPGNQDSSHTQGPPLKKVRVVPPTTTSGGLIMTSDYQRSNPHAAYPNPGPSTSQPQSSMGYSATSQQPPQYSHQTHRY

[6] = molecular target: Cyclin-dependent kinase 8 (Homo sapiens) (UniProt P49336); test: Inhibition of CDK8 in human HCC38 cells assessed as reduction in STAT1 phosphorylation at Ser727 residue after 24 hrs by Western blot analysis; type: cell-based
HCC38 [7] = test: Antimigratory activity against human HCC38 cells at 1.25 to 5 uM after 24 hrs by scratch wound healing based microscopic analysis; type: functional, cell-based
MDA-MB-231 [8] = test: Induction of apoptosis in human MDA-MB-231 cells at 2.5 to 20 uM after 48 hrs by Annexin-V/PI staining based flow cytometric analysis; type: functional, cell-based
HCC38 [9] = test: Inhibition of epithelial-mesenchymal transition in human HCC38 cells reduction in BMP4 protein expression after 24 hrs by Western blot analysis; type: functional, cell-based
MDA-MB-231 [10] = test: Inhibition of epithelial-mesenchymal transition in human MDA-MB-231 cells reduction in beta catenin protein expression after 24 hrs by Western blot analysis; type: functional, cell-based
HCC38 [11] = test: Inhibition of epithelial-mesenchymal transition in human HCC38 cells increase in E-cadherin expression at 5 uM after 24 hrs by RT-PCR analysis; type: functional, cell-based
[12] = molecular target: Cyclin-dependent kinase 8 (Homo sapiens) (UniProt P49336); test: Inhibition of CDK8 in human MDA-MB-231 cells assessed as reduction in HK1 expression at 10 uM after 24 hrs by RT-PCR analysis; type: cell-based
HCC38 [13] = test: Inhibition of epithelial-mesenchymal transition in human HCC38 cells reduction in beta catenin protein expression after 24 hrs by Western blot analysis; type: functional, cell-based
MDA-MB-231 [14] = test: Cell cycle arrest in human MDA-MB-231 cells assessed as increase in accumulation of cells at sub-G1 phase at 2.5 to 10 uM by PI/RNase staining based flow cytometric analysis; type: functional
HCC38 [15] = test: Induction of apoptosis in human HCC38 cells at 2.5 to 20 uM after 48 hrs by Annexin-V/PI staining based flow cytometric analysis; type: functional, cell-based
MDA-MB-231 [16] = test: Inhibition of epithelial-mesenchymal transition in human MDA-MB-231 cells increase in E-cadherin expression at 5 uM after 24 hrs by RT-PCR analysis; type: functional, cell-based
[17] = molecular target: Cyclin-dependent kinase 8 (Homo sapiens) (UniProt P49336); test: Inhibition of CDK8 in human HCC38 cells assessed as reduction in HK1 expression at 10 uM after 24 hrs by RT-PCR analysis; type: cell-based
[18] = Toxicity in Balb/c mouse xenografted with human MDA-MB-231 cells assessed as effect on body weight at 5 to 20 mg/kg, ip ip administered 3 times per week and measured 2 times per week for 29 days; type: organism-based; details: in vivo, 696 h
Mus musculus [19] = test: Downregulation of phosphorylated STAT1 expression at ser727 residue in Balb/c mouse xenografted with human MDA-MB-231 cells at 5 to 20 mg/kg, ip administered 3 times per week for 29 days by DAB staining based immunohistochemical analysis; type: functional, organism-based
MDA-MB-231 [20] = test: Inhibition of epithelial-mesenchymal transition in human MDA-MB-231 cells reduction in vimentin protein expression after 24 hrs by Western blot analysis; type: functional, cell-based
HCC38 [21] = test: Cell cycle arrest in human HCC38 cells assessed as increase in accumulation of cells at sub-G1 phase at 2.5 to 10 uM by PI/RNase staining based flow cytometric analysis; type: functional
[22] = molecular target: Cyclin-dependent kinase 8 (Homo sapiens) (UniProt P49336); test: Inhibition of CDK8 in human MDA-MB-231 cells assessed as reduction in AXL expression after 24 hrs by Western blot analysis; type: cell-based
[23] = molecular target: Cyclin-dependent kinase 8 (Homo sapiens) (UniProt P49336); test: Inhibition of CDK8 in human MDA-MB-231 cells assessed as reduction in skp2 expression after 48 hrs by Western blot analysis; type: cell-based
Mus musculus [24] = test: Downregulation of AXL expression in Balb/c mouse xenografted with human MDA-MB-231 cells at 5 to 20 mg/kg, ip administered 3 times per week for 29 days by DAB staining based immunohistochemical analysis; type: functional, organism-based
MDA-MB-231 [25] = test: Inhibition of colony formation in human MDA-MB-231 cells assessed as reduction in number of colonies at 2.5 to 20 uM after 14 days by crystal violet staining based light microscopic analysis; type: functional, cell-based
HCC38 [26] = test: Induction of apoptosis in human HCC38 cells assessed as increase in PARP cleavage after 48 hrs by Western blot analysis; type: functional, cell-based
MDA-MB-231 [27] = test: Inhibition of epithelial-mesenchymal transition in human MDA-MB-231 cells reduction in N-cadherin expression at 5 uM after 24 hrs by RT-PCR analysis; type: functional, cell-based
HCC38 [28] = test: Inhibition of epithelial-mesenchymal transition in human HCC38 cells reduction in vimentin protein expression after 24 hrs by Western blot analysis; type: functional, cell-based
MDA-MB-231 [29] = test: Antitumour activity against human MDA-MB-231 cells xenografted in Balb/c mouse assessed as reduction in tumour volume at 5 mg/kg, ip administered 3 times per week and measured 2 times per week for 29 days relative to control; type: functional; parameters: scale not given: the % may be the effect or the level left
[30] = molecular target: Cyclin-dependent kinase 8 (Homo sapiens) (UniProt P49336); test: Inhibition of CDK8 in human MDA-MB-231 cells assessed as reduction in STAT3 phosphorylation after 24 hrs by Western blot analysis; type: cell-based
MDA-MB-231 [31] = test: Induction of apoptosis in human MDA-MB-231 cells assessed as increase in PARP cleavage after 48 hrs by Western blot analysis; type: functional, cell-based
Mus musculus [32] = test: Downregulation of Ki67 expression in Balb/c mouse xenografted with human MDA-MB-231 cells at 5 to 20 mg/kg, ip administered 3 times per week for 29 days by DAB staining based immunohistochemical analysis; type: functional, organism-based
HCC38 [33] = test: Inhibition of colony formation in human HCC38 cells assessed as reduction in number of colonies at 2.5 to 20 uM after 14 days by crystal violet staining based light microscopic analysis; type: functional, cell-based
MDA-MB-231 [34] = test: Inhibition of colony formation in human MDA-MB-231 cells assessed as reduction in colony size at 2.5 to 20 uM after 14 days by crystal violet staining based light microscopic analysis; type: functional, cell-based
HCC38 [35] = test: Inhibition of colony formation in human HCC38 cells assessed as reduction in colony size at 20 uM after 14 days by crystal violet staining based light microscopic analysis; type: functional, cell-based
MDA-MB-231 [36] = test: Antiproliferative activity against human MDA-MB-231 cells assessed as reduction in cell viability after 72 hrs by SRB assay; type: functional, cell-based
[37] = molecular target: Cyclin-dependent kinase 8 (Homo sapiens) (UniProt P49336); test: Inhibition of CDK8 in human HCC38 cells assessed as reduction in STAT3 phosphorylation after 24 hrs by Western blot analysis; type: cell-based
[38] = molecular target: Cyclin-dependent kinase 8 (Homo sapiens) (UniProt P49336); test: Inhibition of CDK8 in human MDA-MB-231 cells assessed as reduction in S6 phosphorylation after 24 hrs by Western blot analysis; type: cell-based
[39] = molecular target: Cyclin-dependent kinase 8 (Homo sapiens) (UniProt P49336); test: Inhibition of CDK8 in human HCC38 cells assessed as reduction in AXL expression after 24 hrs by Western blot analysis; type: cell-based
[40] = molecular target: Cyclin-dependent kinase 8 (Homo sapiens) (UniProt P49336); test: Inhibition of CDK8 in human MDA-MB-231 cells assessed as increase in P27 expression at 10 uM after 24 hrs by RT-PCR analysis; type: cell-based
[41] = molecular target: Cyclin-dependent kinase 8 (Homo sapiens) (UniProt P49336); test: Inhibition of CDK8 in human MDA-MB-231 cells assessed as reduction in STAT1 phosphorylation at Ser727 residue after 24 hrs by Western blot analysis; type: cell-based
MDA-MB-231 [42] = test: Antitumour activity against human MDA-MB-231 cells xenografted in Balb/c mouse assessed as reduction in tumour volume at 20 mg/kg, ip administered 3 times per week and measured 2 times per week for 29 days relative to control; type: functional; parameters: scale not given: the % may be the effect or the level left
[43] = molecular target: Cyclin-dependent kinase 8 (Homo sapiens) (UniProt P49336); test: Inhibition of CDK8 in human MDA-MB-231 cells assessed as increase in P27 expression after 48 hrs by Western blot analysis; type: cell-based
HCC38 [44] = test: Inhibition of epithelial-mesenchymal transition in human HCC38 cells reduction in N-cadherin expression at 5 uM after 24 hrs by RT-PCR analysis; type: functional, cell-based
MDA-MB-231 [45] = test: Antimigratory activity against human MDA-MB-231 cells at 1.25 to 5 uM after 24 hrs by scratch wound healing based microscopic analysis; type: functional, cell-based
HCC38 [46] = test: Antiproliferative activity against human HCC38 cells assessed as reduction in cell viability after 72 hrs by SRB assay; type: functional, cell-based
[47] = molecular target: Cyclin-dependent kinase 8 (Homo sapiens) (UniProt P49336); test: Inhibition of CDK8 in human HCC38 cells assessed as increase in P27 expression after 48 hrs by Western blot analysis; type: cell-based
[48] = molecular target: Cyclin-dependent kinase 8 (Homo sapiens) (UniProt P49336); test: Inhibition of CDK8 in human HCC38 cells assessed as reduction in skp2 expression after 48 hrs by Western blot analysis; type: cell-based
MDA-MB-231 [49] = test: Inhibition of epithelial-mesenchymal transition in human MDA-MB-231 cells reduction in BMP4 protein expression after 24 hrs by Western blot analysis; type: functional, cell-based
[50] = molecular target: Cyclin-dependent kinase 8 (Homo sapiens) (UniProt P49336); test: Inhibition of CDK8 in human HCC38 cells assessed as increase in P27 expression at 10 uM after 24 hrs by RT-PCR analysis; type: cell-based

CC(=O)O[C@H]1C(=O)[C@@]2(C)[C@H]([C@H](OC(=O)c3ccccc3)[C@]3(O)C[C@H](OC(=O)[C@H](O)[C@@H](NC(=O)c4ccccc4)c4ccccc4)C(C)=C1C3(C)C)[C@]1(OC(C)=O)CO[C@@H]1C[C@@H]2O [PACLITAXEL]
active: Activity (Mus musculus [3])
inactive: Activity (Mus musculus [1]) | Activity (Mus musculus [4])
Toxic: Activity [2]

COc1cc(/C=C/C(=O)OC[C@H]2O[C@H](O[C@]3(COC(=O)/C=C/c4ccc(O)cc4)O[C@H](COC(=O)/C=C/c4ccc(O)cc4)[C@@H](O)[C@@H]3OC(=O)/C=C/c3ccc(O)cc3)[C@H](O)[C@@H](O)[C@@H]2O)ccc1O [VANICOSIDE B]
active: inhibition [5] Dose-dependent effect | inhibition [6] Dose-dependent effect | Activity (HCC38 [7]) | Activity (MDA-MB-231 [8]) | inhibition (HCC38 [9]) Dose-dependent effect | inhibition (MDA-MB-231 [10]) Dose-dependent effect | inhibition (HCC38 [11]) | inhibition [12] | inhibition (HCC38 [13]) Dose-dependent effect | Activity (MDA-MB-231 [14]) | Activity (HCC38 [15]) | inhibition (MDA-MB-231 [16]) | inhibition [17] | Activity (Mus musculus [19]) | inhibition (MDA-MB-231 [20]) Dose-dependent effect | Activity (HCC38 [21]) | inhibition [22] Dose-dependent effect | inhibition [23] Dose-dependent effect | Activity (Mus musculus [24]) | inhibition (MDA-MB-231 [25]) | Activity (HCC38 [26]) Dose-dependent effect | inhibition (MDA-MB-231 [27]) | inhibition (HCC38 [28]) Dose-dependent effect | inhibition [30] Dose-dependent effect | Activity (MDA-MB-231 [31]) Dose-dependent effect | Activity (Mus musculus [32]) | inhibition (HCC38 [33]) | inhibition (MDA-MB-231 [34]) | inhibition (HCC38 [35]) | Activity (MDA-MB-231 [36]) Dose-dependent effect | inhibition [37] Dose-dependent effect | inhibition [38] Dose-dependent effect | inhibition [39] Dose-dependent effect | inhibition [40] | inhibition [41] Dose-dependent effect | inhibition [43] Dose-dependent effect | inhibition (HCC38 [44]) | Activity (MDA-MB-231 [45]) | Activity (HCC38 [46]) Dose-dependent effect | inhibition [47] Dose-dependent effect | inhibition [48] Dose-dependent effect | inhibition (MDA-MB-231 [49]) Dose-dependent effect | inhibition [50]
Non-Toxic: Activity [18]
65.72%: Activity (MDA-MB-231 [42])
53.85%: Activity (MDA-MB-231 [29])
9 µM: IC50 (MDA-MB-231 [36]; MDA-MB-231, 72 h)
